One data set has as its system COLO 205 cells. The experiment in a line: MTS cytotoxicity test procedure with COLO 205 cells. Particulars: Homo sapiens, 72 h, MTS assay, three days of culture. It is filed as cell-based. Here is the method:
The MTS assay, which is sold in kit form by Promega (Madison, Wis.; CellTiter 96 AQueous Non-Radioactive Cell Proliferation Assay), is based on the conversion by viable cells, but not by dead cells, of the tetrazolium salt, MTS (3-(4,5-dimethylthiazol-2-yl)-5-(3-carboxymethoxyphenyl)-2-(4-sulphophenyl)-2H-tetrazolium, inner salt), into a water-soluble colored formazan which is detected by spectrophotometry. Compounds are tested at nine concentrations, in order to determine IC50 values. For the test procedure, cells are harvested by trypsinization (or, in the case of non-adherent cells, by simple resuspension), washed, counted and distributed to wells of 96-well flat-bottom microtiter plates at 1000 cells per well in 200 μL of medium. In addition, one row of wells on a separate plate receives cells as above (“time 0” plate). All plates are incubated at 370 in humidified 5% CO2 in air for about 24 hr.
On day 2, compounds for test are diluted and added to wells. Compounds are dissolved in DMSO at 10 mg/mL. For each compound, nine serial 2-fold dilutions are prepared in DMSO. Ten μL of each dilution in DMSO is transferred to 100 μL of medium, mixed well, and then 5 μL of this dilution is transferred in quadruplicate to wells containing cells. The final high concentration of each compound is typically 1-5 μM. Plates are returned to the incubator for three days. At the time of drug addition to the experimental plates, the MTS assay is run on the “time 0” plate. This gives the “time 0 MTS value” which is related to the number of viable cells per well at the time of drug addition.
After three days of culture with test compounds (day 5 overall), the MTS assay is done on all wells of the experimental plates. The absorbance values of the quadruplicate sample wells are averaged and divided by the average of the “time 0” values. The average of control wells without drug, divided by the average “time 0” value, gives the maximal relative increase in MTS color yield due to cell growth during the final three days of culture. The average of control wells with high drug concentration, divided by the “time 0” value, gives the minimal relative color yield for cells that were completely killed. The nine values for each compound are plotted against concentration, and the concentration that produces a relative color yield half way between the maximum and minimum is taken as the IC50 value.
COLO 205 is a human colon carcinoma cell line that is used for comparative testing of the examples of this invention and several reference compounds (Table 1). This line is sensitive to paclitaxel and vincristine.
Background: Tetrazolium assays rely on reduction of a dye to a coloured formazan, in cell work by metabolically active cells.

In another data set the test system is KB cells. Description: SRB cytotoxicity test procedure with KB cells. It is filed as cell-based. The conditions noted are these: Homo sapiens, SRB assay, means of 2 independent experiments. The text has this: Human cancer cell lines, unless otherwise noted, are obtained from the American Type Culture Collection (Rockville, Md.). […]
The SRB standard cytotoxicity assay is done according to previously reported methods (Discafani, C. M., Carroll, M. L., Floyd Jr., M. B. F., Hollander, I. J., Husain, Z., Johnson, B. D., Kitchen, D., May, M. K., Malo, M. S., Minnick Jr., A. A., Nilakantan, R., Shen, R., Wang Y-F., Wissner, A., Greenberger, L. M. Irreversible inhibition of epidermal growth factor receptor tyrosine kinase with in vivo activity by N-[4-[3-bromophenyl)amino]-6-quinaxolinyl]-2-butynamide (CL-387,785). […] Absorbance is read on a Victor V multi-label plate reader (Perkin Elmer, Gaithersburg, Md.). […]
On the technique in general: In SRB staining, fixed cells bind dye roughly in proportion to their protein.

Another data set deals with KB-8-5 cells. Description: SRB cytotoxicity test procedure with KB-8-5 cells. Particulars: SRB assay. It is filed as cell-based, human. The text has this: (§1) Human cancer cell lines, unless otherwise noted, are obtained from the American Type Culture Collection (Rockville, Md.). The following drug-sensitive parental cell lines, and their derived drug-resistant counterparts, are obtained from the originators as listed: (a) S1 (parental line from a subclone of human colon carcinoma line LS174T) and derived S1-M1-3.2 (herein called S1-M1) which expresses the MXR drug transporter protein, are provided by Dr. L. Greenberger, Wyeth Research (Rabindran, S. K., He, H., Singh, M., Brown, E., Collins, K. I., Annable, T., and Greenberger, L. M. Reversal of a novel multidrug resistance mechanism in human colon carcinoma cells by fumitremorgin C. Cancer Res., 58: 5850-5858,1998); (b) parental HL-60 human promyelocytic leukemia line and derived HL-60/ADR, which expresses the MRP1 drug transporter protein, are provided by Dr. M. Center, University of Kansas (McGrath, T., and Center, M. S. Adriamycin resistance in HL60 cells in the absence of detectable P-glycoprotein. Biochem. Biophys. […] J. Biol. Chem., 261: 7762-7770, 1986) via Dr. L. Greenberger, Wyeth Research.
The SRB standard cytotoxicity assay is done according to previously reported methods (Discafani, C. M., Carroll, M. L., Floyd Jr., M. B. F., Hollander, I. J., Husain, Z., Johnson, B. D., Kitchen, D., May, M. K., Malo, M. S., Minnick Jr., A. A., Nilakantan, R., Shen, R., Wang Y-F., Wissner, A., Greenberger, L. M. Irreversible inhibition of epidermal growth factor receptor tyrosine kinase with in vivo activity by N-[4-[3-bromophenyl)amino]-6-quinaxolinyl]-2-butynamide (CL-387,785). Biochem. Pharmacol., 57: 917-925, 1999). Briefly, cells are plated in 100 μL of medium in 96-well flat-bottom microtiter plates in the morning of day 1 and allowed to adhere to the plates for 2-6 hr. Compounds are serially diluted into medium as 2× stocks and 100 μL of these stocks are added to cells in duplicate. Compounds are incubated with cells for 3 days. At the end of the incubation period the sulforhodamine B (SRB) assay, which measures protein content as an assessment of cell survival, is performed as described previously (Skehan, P., Storeng, R., Scudiero, D., Monks, A., McMahon, J., Vistica, D., Warren, J. T., Bokesch, H., Kenney, S., Boyd, M. R. New calorimetric cytotoxicity assay for anticancer-drug screening. J. Natl. Cancer Inst., 82:1107-1112, 1990) with some modifications. Medium is gently decanted from plates and replaced with 200 μL per well of cold serum-free medium containing a final concentration of 10% trichloroacetic acid. The plates are incubated for 1 hr at 40, washed 5 times in cold distilled water, and air-dried overnight. […] Absorbance is read on a Victor V multi-label plate reader (Perkin Elmer, Gaithersburg, Md.). […]

A further data set concerns KB-V1 cells. Description: SRB cytotoxicity test procedure with KB-V1 cells. It is filed as cell-based, human. The conditions noted are these: SRB assay.
From the text: as §1
The SRB standard cytotoxicity assay is done according to previously reported methods (Discafani, C. M., Carroll, M. L., Floyd Jr., M. B. F., Hollander, I. J., Husain, Z., Johnson, B. D., Kitchen, D., May, M. K., Malo, M. S., Minnick Jr., A. A., Nilakantan, R., Shen, R., Wang Y-F., Wissner, A., Greenberger, L. M. Irreversible inhibition of epidermal growth factor receptor tyrosine kinase with in vivo activity by N-[4-[3-bromophenyl)amino]-6-quinaxolinyl]-2-butynamide (CL-387,785). Biochem. Pharmacol., 57: 917-925, 1999). Briefly, cells are plated in 100 μL of medium in 96-well flat-bottom microtiter plates in the morning of day 1 and allowed to adhere to the plates for 2-6 hr. Compounds are serially diluted into medium as 2× stocks and 100 μL of these stocks are added to cells in duplicate. Compounds are incubated with cells for 3 days. At the end of the incubation period the sulforhodamine B (SRB) assay, which measures protein content as an assessment of cell survival, is performed as described previously (Skehan, P., Storeng, R., Scudiero, D., Monks, A., McMahon, J., Vistica, D., Warren, J. T., Bokesch, H., Kenney, S., Boyd, M. R. New calorimetric cytotoxicity assay for anticancer-drug screening. J. Natl. Cancer Inst., 82:1107-1112, 1990) with some modifications. Medium is gently decanted from plates and replaced with 200 μL per well of cold serum-free medium containing a final concentration of 10% trichloroacetic acid. The plates are incubated for 1 hr at 40, washed 5 times in cold distilled water, and air-dried overnight. The fixed cells are stained for 10 min with 80 μL per well of 0.04% SRB solution prepared in 1% glacial acetic acid. Staining solution is decanted, plates are washed 5 times in 1% glacial acetic acid, and then air-dried until completely dry. Stained cell product is dissolved in 150 μL per well of 10 mM Trizma Base with shaking for 20 minutes. Absorbance is read on a Victor V multi-label plate reader (Perkin Elmer, Gaithersburg, Md.).
The KB lines express different amounts of the P-glycoprotein (MDR1) membrane pump which produces resistance to the action of many cytotoxic compounds, including paclitaxel and vincristine. The parental KB line expresses no P-glycoprotein, KB-8-5 expresses moderate levels of the protein, and KB-V1 expresses very high levels.

The structures appear in SMILES notation.

Take `CN(C)CCCOc1cc(F)c(-c2c(Cl)nc3nccn3c2NCC(F)(F)F)c(F)c1` [Example 4, 7-chloro-6-{4-[3-(dimethylamino)propoxy]-2,6-difluorophenyl}-N-(2,2,2-trifluoroethyl)imidazo[1,2-a]pyrimidin-5-amine]: the melting point (in general, the temperature of the solid-liquid transition) is 52 to 55 °C. Also, half-maximal inhibition in the data set with COLO 205 cells (IC50) was put at 88 nM. Besides, in the data set on KB cells, the half-maximal inhibitory concentration (IC50) (commonly the concentration needed to halve the response being measured) turned out to be 24 nM. In addition, the IC50 in the data set with KB-8-5 cells (Homo sapiens, KB 8.5 cells, means of 2 independent experiments) was found to be 59 nM. Also, in the data set on KB-8-5 cells (IC50 on KB 8.5 cells/IC50 on KB cells), the “Ratio 8.5/KB” value is 2.5. In addition, in the data set with KB-V1 cells (Homo sapiens, KB-V1, KB VI cells, means of 2 independent experiments), the IC50 is 2390 nM. In the data set on KB-V1 cells (IC50 on KB VI cells/IC50 on KB cells), the “Ratio VI/KB” value came out at 99.

These data come from patent publication US7285555B2, “6-aryl-7-halo-imidazo[1,2-a]pyrimidines as anticancer agents” (Wyeth Holdings Corporation, priority 2003, dated 2007).
